# Test results: the supplement of paper PMC10307832
# What was measured:
# Test in all cases: relative viability (nuclei count vs DMSO), 5 days (fraction); higher = more cells survive
# AZD8055 + Linsitinib = compound: COc1ccc(-c2ccc3c(N4CCOC[C@@H]4C)nc(N4CCOC[C@@H]4C)nc3n2)cc1CO [AZD8055] + C[C@]1(O)C[C@@H](c2nc(-c3ccc4ccc(-c5ccccc5)nc4c3)c3c(N)nccn32)C1 [Linsitinib] (partner 1 µM)
# Procedure, shortened: (§1)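 One day after seeding in 1536-well plates, lung cancer cell lines were dosed by pin tool. Dosing was either single-drug or a fixed anchor-drug dose plus five library-drug doses (not always all listed) in √10 steps. After 5 days, nuclei were stained in one fix-and-stain step and counted on 4× images, and relative viability is the nuclei count of treated wells over that of vehicle wells, given as the median of duplicate plates.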
# AZD8055 + Pemetrexed = compound: COc1ccc(-c2ccc3c(N4CCOC[C@@H]4C)nc(N4CCOC[C@@H]4C)nc3n2)cc1CO [AZD8055] + Nc1nc2[nH]cc(CCc3ccc(C(=O)N[C@@H](CCC(=O)O)C(=O)O)cc3)c2c(=O)[nH]1 [Pemetrexed] (partner 0.2 µM)
# Procedure, shortened: as §1
# AZD8055 + Vorinostat = compound: COc1ccc(-c2ccc3c(N4CCOC[C@@H]4C)nc(N4CCOC[C@@H]4C)nc3n2)cc1CO [AZD8055] + O=C(CCCCCCC(=O)Nc1ccccc1)NO [Vorinostat] (partner 1 µM)
# Procedure, shortened: as §1
# AZD8055 + Olaparib = compound: COc1ccc(-c2ccc3c(N4CCOC[C@@H]4C)nc(N4CCOC[C@@H]4C)nc3n2)cc1CO [AZD8055] + O=C(c1cc(Cc2n[nH]c(=O)c3ccccc23)ccc1F)N1CCN(C(=O)C2CC2)CC1 [Olaparib] (partner 8 µM)
# Procedure, shortened: as §1
Cell Line,relative viability (AZD8055 + Linsitinib; first compound 0.01 µM),relative viability (AZD8055 + Linsitinib; first compound 0.03162 µM),relative viability (AZD8055 + Linsitinib; first compound 0.1 µM),relative viability (AZD8055 + Linsitinib; first compound 0.3162 µM),relative viability (AZD8055 + Linsitinib; first compound 1 µM),relative viability (AZD8055 + Pemetrexed; first compound 0.01 µM),relative viability (AZD8055 + Pemetrexed; first compound 0.03162 µM),relative viability (AZD8055 + Pemetrexed; first compound 0.1 µM),relative viability (AZD8055 + Pemetrexed; first compound 0.3162 µM),relative viability (AZD8055 + Pemetrexed; first compound 1 µM),relative viability (AZD8055 + Vorinostat; first compound 0.01 µM),relative viability (AZD8055 + Vorinostat; first compound 0.03162 µM),relative viability (AZD8055 + Vorinostat; first compound 0.1 µM),relative viability (AZD8055 + Vorinostat; first compound 0.3162 µM),relative viability (AZD8055 + Vorinostat; first compound 1 µM),relative viability (AZD8055 + Olaparib; first compound 0.01 µM),relative viability (AZD8055 + Olaparib; first compound 0.03162 µM),relative viability (AZD8055 + Olaparib; first compound 0.1 µM),relative viability (AZD8055 + Olaparib; first compound 0.3162 µM),relative viability (AZD8055 + Olaparib; first compound 1 µM)
NCI-H650,0.889,0.575,0.556,0.342,0.293,0.981,0.691,0.843,0.371,0.299,0.496,0.352,0.478,0.231,0.146,0.484,0.38,0.357,0.217,0.175
NCI-H661,0.567,0.41,0.516,0.253,0.293,1.02,0.882,0.868,0.579,0.418,0.866,0.791,0.707,0.465,0.4,0.785,0.802,0.691,0.447,0.378
NCI-H838,0.664,0.383,0.32,0.208,0.25,0.228,0.236,0.231,0.18,0.201,0.695,0.577,0.447,0.428,0.346,0.687,0.597,0.351,0.259,0.29
NCI-H1355,0.684,0.543,0.354,0.234,0.214,1.06,0.91,0.772,0.316,0.235,0.587,0.541,0.414,0.214,0.235,0.694,0.622,0.553,0.269,0.266
NCI-H1395,1.1,0.828,0.708,0.553,0.522,0.767,0.547,0.735,0.385,0.356,0.683,0.448,0.621,0.422,0.461,0.479,0.412,0.407,0.358,0.432
NCI-H1437,0.832,0.731,0.425,0.143,0.155,0.324,0.308,0.276,0.23,0.224,0.914,0.786,0.708,0.512,0.311,0.696,0.658,0.601,0.457,0.311
NCI-H1651,0.845,0.796,0.689,0.305,0.282,0.645,0.585,0.477,0.388,0.367,0.59,0.526,0.552,0.411,0.351,0.193,0.191,0.193,0.222,0.25
NCI-H1666,0.802,0.666,0.417,0.552,0.375,0.917,0.878,0.895,0.751,0.716,0.933,1.07,0.892,0.856,0.736,0.875,0.81,0.771,0.714,0.674
NCI-H1734,0.857,0.638,0.457,0.289,0.262,0.45,0.375,0.41,0.385,0.323,0.822,0.571,0.506,0.303,0.246,0.675,0.555,0.458,0.298,0.199
NCI-H1755,0.95,0.867,0.764,0.474,0.403,0.462,0.423,0.384,0.424,0.461,0.64,0.613,0.57,0.423,0.366,0.767,0.765,0.677,0.446,0.378
NCI-H1793,0.539,0.315,0.224,0.197,0.18,0.721,0.376,0.268,0.184,0.225,0.567,0.387,0.271,0.188,0.224,0.528,0.329,0.221,0.203,0.213
NCI-H1915,1.19,0.977,1.08,0.837,0.558,0.52,0.5,0.507,0.419,0.372,0.486,0.36,0.419,0.284,0.246,0.257,0.262,0.289,0.238,0.204
NCI-H1944,1.13,0.843,0.693,0.477,0.335,0.57,0.568,0.454,0.286,0.294,0.518,0.431,0.422,0.223,0.207,0.41,0.428,0.393,0.254,0.259
NCI-H1975,0.897,0.581,0.469,0.265,0.219,0.311,0.301,0.264,0.206,0.167,0.749,0.623,0.448,0.282,0.263,0.976,0.677,0.464,0.221,0.189
NCI-H1993,0.721,0.593,0.688,0.702,0.695,0.519,0.542,0.459,0.434,0.473,0.55,0.474,0.358,0.287,0.407,1.02,0.793,0.602,0.409,0.434
NCI-H2009,1.17,1.1,0.891,0.692,0.374,1.08,1.06,1.03,0.722,0.263,0.816,0.798,0.732,0.458,0.395,0.677,0.861,0.634,0.344,0.254

Cell Line,relative viability (AZD8055 + Linsitinib; first compound 0.01 µM),relative viability (AZD8055 + Linsitinib; first compound 0.03162 µM),relative viability (AZD8055 + Linsitinib; first compound 0.1 µM),relative viability (AZD8055 + Linsitinib; first compound 0.3162 µM),relative viability (AZD8055 + Linsitinib; first compound 1 µM),relative viability (AZD8055 + Pemetrexed; first compound 0.01 µM),relative viability (AZD8055 + Pemetrexed; first compound 0.03162 µM),relative viability (AZD8055 + Pemetrexed; first compound 0.1 µM),relative viability (AZD8055 + Pemetrexed; first compound 0.3162 µM),relative viability (AZD8055 + Pemetrexed; first compound 1 µM),relative viability (AZD8055 + Vorinostat; first compound 0.01 µM),relative viability (AZD8055 + Vorinostat; first compound 0.03162 µM),relative viability (AZD8055 + Vorinostat; first compound 0.1 µM),relative viability (AZD8055 + Vorinostat; first compound 0.3162 µM),relative viability (AZD8055 + Vorinostat; first compound 1 µM),relative viability (AZD8055 + Olaparib; first compound 0.01 µM),relative viability (AZD8055 + Olaparib; first compound 0.03162 µM),relative viability (AZD8055 + Olaparib; first compound 0.1 µM),relative viability (AZD8055 + Olaparib; first compound 0.3162 µM),relative viability (AZD8055 + Olaparib; first compound 1 µM)
NCI-H2023,0.45,0.343,0.28,0.17,0.12,0.229,0.205,0.16,0.0973,0.122,0.65,0.405,0.335,0.14,0.115,0.434,0.402,0.224,0.148,0.142
NCI-H2085,0.956,0.744,0.566,0.289,0.274,0.827,0.74,0.481,0.31,0.268,0.645,0.554,0.49,0.44,0.363,0.858,0.822,0.553,0.387,0.354
NCI-H2087,0.907,0.905,0.679,0.411,0.367,0.646,0.587,0.588,0.427,0.292,0.679,1.03,0.734,0.152,0.223,0.625,0.519,0.451,0.263,0.217
NCI-H2126,0.655,0.572,0.504,0.375,0.385,0.693,0.622,0.649,0.579,0.401,0.82,0.739,0.505,0.496,0.405,0.916,0.833,0.709,0.493,0.363
NCI-H2228,0.528,0.284,0.304,0.175,0.257,0.41,0.345,0.233,0.171,0.171,0.918,0.541,0.416,0.271,0.242,0.763,0.432,0.217,0.187,0.228
NCI-H2347,0.875,0.805,0.746,0.51,0.436,0.456,0.449,0.442,0.414,0.435,0.424,0.66,0.406,0.304,0.352,0.57,0.491,0.502,0.328,0.395
NCI-H2405,0.802,0.621,0.477,0.333,0.331,1.06,0.987,0.803,0.34,0.342,1.19,0.918,0.796,0.36,0.373,0.904,0.851,0.772,0.359,0.35
NCI-H3122,0.995,0.823,0.547,0.384,0.299,0.229,0.228,0.231,0.227,0.225,0.809,0.999,0.877,0.442,0.338,0.775,0.697,0.689,0.338,0.283
PC-3 [JPC-3],0.992,0.972,0.882,0.673,0.461,1.17,1.09,0.877,0.622,0.454,0.849,0.902,0.631,0.534,0.495,1.19,1.26,1.13,0.798,0.61
PC-14,1.03,0.944,0.669,0.526,0.211,0.153,0.214,0.178,0.212,0.162,0.78,0.606,0.586,0.201,0.125,0.461,0.401,0.321,0.163,0.142
RERF-LC-KJ,0.86,0.739,0.597,0.44,0.352,0.51,0.499,0.428,0.396,0.373,0.819,0.665,0.575,0.446,0.384,0.963,1.08,0.669,0.429,0.404
SK-LU-1,0.941,0.798,0.877,0.491,0.321,1.09,0.874,0.69,0.444,0.371,0.745,0.701,0.605,0.393,0.292,0.442,0.412,0.345,0.305,0.254
SK-MES-1,1.06,0.932,0.743,0.447,0.313,0.947,0.892,0.833,0.408,0.326,1.06,0.958,0.962,0.427,0.314,0.748,0.484,0.328,0.208,0.262
SW 1573,0.725,0.584,0.484,0.267,0.153,0.938,0.728,0.653,0.285,0.18,0.791,0.452,0.773,0.21,0.199,0.555,0.417,0.325,0.17,0.16
UMC-11,0.995,0.884,0.539,0.251,0.266,0.76,0.629,0.525,0.302,0.264,0.453,0.282,0.258,0.233,0.21,0.376,0.323,0.335,0.223,0.269
